# Experimental data from patent US20200397807A1, “NICOTINYL RIBOSIDE COMPOUNDS AND THEIR USES” (MitoPower, LLC, priority 2019, published 2020).
# Structures can show the parent of a compound that is named as a salt. Where two headings read alike, the source gives them in different places.
# Assays:
# HepG2 cells [1] = assay: Glucose concentration in the media; assay type: cell-based
# HepG2 cells [2] = system: HepG2 cells
# HepG2 cells [3] = system: HepG2 cells; remark: listed apart in the source
# HepG2 cells [4] = assay: Lactate released into the media; assay type: cell-based
# [5] = led to fatally high body temperature; cited from earlier work
# Jurkat cells [6] = settings: MNNG 100 μM, compound 1 mM
# Jurkat cells [7] = assay: Total cellular NAD^+ level after MNNG-induced depletion (NAD/NADH Glo assay); assay type: cell-based; settings: for % NAD^+ Repletion: MNNG 100 μM, compound 1 mM; for increase of NAD^+ level: 100 μM MNNG 30 min, wash, NR 100 μM or/and olaparib 5 nM 3.5 hr
# HepG2 cells [8] = assay: MNNG-induced cytotoxicity / cytoprotection (CellTiter-Blue Cell Viability Assay); assay type: cell-based; settings: MNNG 600 μM, compound 1 mM
# HepG2 cells [9] = assay: Total cellular NAD^+ level after MNNG-induced depletion (NAD/NADH Glo assay); assay type: cell-based; settings: MNNG 100 μM, compound 1 mM
# Jurkat cells [10] = assay: NAD^+ assay (total cellular NAD^+ by HPLC/LCMS), with or without MNNG; settings: Jurkat not treated with MNNG; NRH vs. NR 100 μM; 4 hr
# [11] = 4 g of oral NTZ; healthy adults; cited from earlier work
compound,measurement,setting,value
"O=[N+]([O-])c1ccc(O)c([N+](=O)[O-])c1 [DNP, 2,4-Dinitrophenol]",concentration of glucose in the media,HepG2 cells [1],significantly reduced
same,% viability of HepG2 cells,HepG2 cells [2],significantly reduced
same,activity of lactate dehydrogenase (LDH) released into the media,HepG2 cells [3],markedly increased
same,concentration of lactate released into the media,HepG2 cells [4],markedly increased
same,"dose causing excessive systemic uncoupling, fold greater than minimum effective dose for reducing body weight",[5],3-10 fold
"NC(=O)c1ccc[n+]([C@@H]2O[C@H](COC(=O)CCC(=O)O)[C@@H](O)[C@H]2O)c1 [MP-42, 3-Carboxamide-1-((2R,3R,4S,5R)-5-(((3-carboxypropanoyl)oxy)methyl)-3,4-dihydroxytetrahydrofuran-2-yl)pyridin-1-ium Trifluoroacetate]",% Cytoprotection,Jurkat cells [6],4.5%
same,% NAD^+ Repletion,Jurkat cells [7],8.2%
same,% Cytoprotection,HepG2 cells [8],9.9%
same,% NAD^+ Repletion,HepG2 cells [9],23.7%
"COC(=O)CCC(=O)OC[C@H]1O[C@@H]([n+]2cccc(C(N)=O)c2)[C@H](O)[C@@H]1O [MP-43, 3-Carboxamide-1-((2R,3R,4S,5R)-3,4-dihydroxy-5-(((4-methoxy-4-oxobutanoyl)oxy)methyl)tetrahydrofuran-2-yl)pyridin-1-ium Trifluoroacetate]",% Cytoprotection,Jurkat cells [6],6.3%
same,% NAD^+ Repletion,Jurkat cells [7],12.9%
same,% Cytoprotection,HepG2 cells [8],5.7%
same,% NAD^+ Repletion,HepG2 cells [9],31.1%
"NC(=O)c1ccc[n+]([C@@H]2O[C@H](CO)[C@@H](O)[C@H]2O)c1 [NR, nicotinamide riboside, reference compound]",increase of NAD^+ level,Jurkat cells [7],43%
NC(=O)C1=CN([C@@H]2O[C@H](CO)[C@@H](O)[C@H]2O)C=CC1 [NRH],concentration of glucose in the media,"HepG2 cells [1]; 50 μM DNP, 100 μM NRH or both, 4 hr, versus untreated, FIG. 29",did not significantly affect
same,"NAD^+ level, NRH alone versus NR alone",Jurkat cells [10],markedly higher NAD^+ level than NR alone
same,concentration of lactate released into the media,"HepG2 cells [4]; 50 μM DNP, 100 μM NRH or both, 4 hr, versus untreated, FIG. 28",did not significantly affect
"CC(=O)Oc1ccccc1C(=O)Nc1ncc([N+](=O)[O-])s1 [NTZ, nitazoxanide]",adverse effect,[11],does not cause any significant adverse effect
"O=C(c1cc(Cc2n[nH]c(=O)c3ccccc23)ccc1F)N1CCN(C(=O)C2CC2)CC1 [olaparib, reference compound]",increase of NAD^+ level,Jurkat cells [7],8%
